Measurements published in US5136076A, “Process for the preparation of amino acid-derived enatiomeric compounds” (Societe Civile Bioprojet, priority 1987, dated 1992).
Blank lines part the entries; values can stand above or below the molecule they belong to.

Tests used:
[1] = tested on: enkephalinase; test: Enkephalinase inhibition in vivo in mouse striatum (Table 1 (b)); details: 30 mn after i.v. administration
Text: (§1) Dosage of `enkephalinase` activity and angiotensin convertase (ACE) activity with determination of the effect of inhibitors both in vitro and on mouses in vivo: inhibition of the same enzymes and protection of natriuretic auricular factor.
(§2) ENKEPHALINASE AND ACE INHIBITING ACTIVITIES IN IN VITRO AND IN VIVO STRIATUM
(b)Activity measured in mouse striatum 30 mn after i.v. administration
according to LlorensCortes et al., Eur. J. Pharmacol., 1985, 119, 183.

[2] = biological target: T1, ACE (angiotensin convertase) (Mus musculus, UniProt P09470); test: ACE inhibition in vivo, mouse striatum (Table 1 (d)); details: for ED50: iv, 0.5 h, read-out: ACE In vivo(d) (DE50, mg/kg)
T1 construct: Activities measured on mouse striatum membranes in vitro or 30; from tissue; host or cells: mouse striatum (membranes)
T1 sequence (P09470 35-1312): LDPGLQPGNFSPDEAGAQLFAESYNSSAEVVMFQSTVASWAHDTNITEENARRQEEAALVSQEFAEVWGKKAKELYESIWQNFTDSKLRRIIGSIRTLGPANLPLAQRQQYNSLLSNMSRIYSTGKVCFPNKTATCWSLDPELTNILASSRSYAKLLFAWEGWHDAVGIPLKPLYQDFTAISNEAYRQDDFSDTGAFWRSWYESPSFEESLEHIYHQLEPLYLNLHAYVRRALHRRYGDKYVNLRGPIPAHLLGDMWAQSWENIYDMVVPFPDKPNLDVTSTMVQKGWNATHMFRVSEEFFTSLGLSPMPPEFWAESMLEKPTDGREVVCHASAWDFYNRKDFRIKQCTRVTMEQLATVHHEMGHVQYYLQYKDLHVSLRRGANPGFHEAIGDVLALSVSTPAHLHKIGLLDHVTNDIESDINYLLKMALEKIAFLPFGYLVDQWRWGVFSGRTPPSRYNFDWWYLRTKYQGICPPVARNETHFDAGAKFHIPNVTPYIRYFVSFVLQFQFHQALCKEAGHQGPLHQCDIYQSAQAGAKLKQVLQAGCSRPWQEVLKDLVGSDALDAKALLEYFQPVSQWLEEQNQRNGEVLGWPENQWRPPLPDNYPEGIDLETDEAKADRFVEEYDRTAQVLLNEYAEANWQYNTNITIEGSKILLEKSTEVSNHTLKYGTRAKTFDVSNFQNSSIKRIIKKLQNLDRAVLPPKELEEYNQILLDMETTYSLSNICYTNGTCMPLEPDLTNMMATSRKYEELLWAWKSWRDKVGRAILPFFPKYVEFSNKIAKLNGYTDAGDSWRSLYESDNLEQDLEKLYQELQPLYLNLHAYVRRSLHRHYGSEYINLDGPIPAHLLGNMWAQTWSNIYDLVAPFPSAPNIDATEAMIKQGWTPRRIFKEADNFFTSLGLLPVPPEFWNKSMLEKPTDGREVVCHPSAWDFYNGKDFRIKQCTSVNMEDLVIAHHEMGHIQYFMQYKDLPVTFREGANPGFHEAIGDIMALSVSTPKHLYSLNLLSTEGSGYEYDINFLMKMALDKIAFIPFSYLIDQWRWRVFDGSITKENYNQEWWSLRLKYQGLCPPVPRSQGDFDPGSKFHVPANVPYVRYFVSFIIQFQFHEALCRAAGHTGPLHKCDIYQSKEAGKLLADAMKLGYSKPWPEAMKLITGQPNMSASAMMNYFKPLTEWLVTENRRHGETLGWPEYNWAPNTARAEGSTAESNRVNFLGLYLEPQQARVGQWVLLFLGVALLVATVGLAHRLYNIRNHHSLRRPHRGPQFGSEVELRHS
Text: as §1, §2
(§3) (c) and (d)Activities measured on mouse striatum membranes in vitro or 30
(§4) mn after i.v. administration according to Yang and Neff, J. Neurochem, […]

[3] = biological target: T2, enkephalinase (Mus musculus, UniProt Q61391); test: Enkephalinase inhibition in vitro on striatum membranes (Table 1 (a)); type: biochemical
T2 construct: Activity measured on striatum membranes according to Llorens et al., J; from tissue; host or cells: striatum membranes
T2 sequence (Q61391 1-750): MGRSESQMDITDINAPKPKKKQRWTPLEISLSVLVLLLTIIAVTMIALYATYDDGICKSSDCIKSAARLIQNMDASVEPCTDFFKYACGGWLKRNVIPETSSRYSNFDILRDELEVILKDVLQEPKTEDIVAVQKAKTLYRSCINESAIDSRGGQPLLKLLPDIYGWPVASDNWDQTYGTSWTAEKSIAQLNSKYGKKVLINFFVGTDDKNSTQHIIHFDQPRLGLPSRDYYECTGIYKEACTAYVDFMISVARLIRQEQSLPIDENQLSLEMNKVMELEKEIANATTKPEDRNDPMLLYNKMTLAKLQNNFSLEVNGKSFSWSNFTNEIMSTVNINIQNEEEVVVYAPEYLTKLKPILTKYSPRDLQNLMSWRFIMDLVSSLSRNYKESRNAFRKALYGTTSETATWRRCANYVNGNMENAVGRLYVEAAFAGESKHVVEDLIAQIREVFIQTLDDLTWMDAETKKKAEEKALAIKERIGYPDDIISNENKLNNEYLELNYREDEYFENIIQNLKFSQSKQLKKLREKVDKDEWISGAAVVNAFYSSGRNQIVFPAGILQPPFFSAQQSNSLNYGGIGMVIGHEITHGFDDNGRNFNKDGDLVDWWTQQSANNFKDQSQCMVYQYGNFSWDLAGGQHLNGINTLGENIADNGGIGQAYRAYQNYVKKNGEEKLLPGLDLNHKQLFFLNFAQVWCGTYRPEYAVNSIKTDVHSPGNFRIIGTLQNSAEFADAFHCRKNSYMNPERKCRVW
Text: as §1, §2
(a)Activity measured on striatum membranes according to Llorens et al., J

[4] = biological target: T1, ACE (angiotensin convertase); test: ACE inhibition in vitro on mouse striatum membranes (Table 1 (c)); type: biochemical
Text: as §1, §2, §3, §4

[5] = tested on: angiotensin conversion enzyme (ACE); details: cited from earlier work
[6] = tested on: cats; test: Inhibition of stimulated gastric acid secretion; type: in vivo, cat; details: 0.5, 1.5 and 5 mg/kg i.v.; p<0.05
[7] = tested on: renal enkephalinase; test: Inhibition of linking between Acetorphan and renal enkephalinase after oral administration (Table 2 (a)); type: in vivo, mouse; details: kidney, 0.3 mg/kg oral, 90 minutes after administration
Text: as §1
(§5) ENKEPHALINASE INHIBITING ACTIVITIES AND PROTECTION OF NATRIURETIC AURICULAR FACTOR (ANF) IN THE KIDNEY IN VIVO
(a) Inhibition of the linking between […] Acetorphan and renal
enkephalinase measured according to S. de la Baume, M. Tuong, F. Brion, J
C. Schwartz (J.P.E.T. 1988, forthcoming) 90 minutes after oral
administration of compounds 1 or 2 at a dose of 0.3 mg/kg.

[8] = tested on: mouses; test: Analgesic activity, plate jump test at 55° C.; type: in vivo, mouse
Method: III. ANALGESIC ACTIVITIES MEASURED ON PLATE JUMP TEST AT 55° C. AFTER ADMINISTRATION TO MOUSES.
(Eddy and Leimbach, J. Pharmacol. Exp. Ther. 1953, 107 385).

[9] = tested on: dogs; test: Colic motive activity (motive index) after standard meal; type: in vivo, dog
Text: Motive index (as evaluated with a restraint gauge).
Influence of previous intravenous (i.v.) or oral (p.o.) administration of
compound or the variations of the colic motive index after standard meal

[10] = tested on: natriuretic auricular factor (ANF) in the kidney; test: Protection of natriuretic auricular factor (ANF) in the kidney in vivo (Table 2 (b)); design: species or system mouse; details: for Increase of ANF (%): renal 125I ANF 2 min after i.v. administration of 10^6 cpm, compound 0.3 mg/kg orally 90 min before, 0.3 mg/kg
Method: as §1, §5
(b) Increase in the renal level of ^125 I ANF, as measured 2 min afte
i.v. administration of 10^6 cpm to mouses having been given compounds
1 or 2, 90 min before (0.3 mg/kg, orally).
Compound 2 (0.3 mg/kg, p.o.) induces in the same test an increase of renal ^125 I ANF of 75±7% after 30 min and […] after 180 min.

[11] = tested on: mouses; test: Subacute toxicity, 3 weeks oral; type: in vivo; details: 2 g/kg/day oral, mouse, as opposed to control
Method: Compound (1) was administered during 3 weeks to mouses at an oral dose of 2 g/kg/day.
Moreover, no signs of tolerance, habituation or other weaning phenomenon were observed on animals submitted to a reversibility test after treatment.

[12] = tested on: cats; test: Anti-inflammatory activity in experimental cholecystitis; type: in vivo, cat; details: 3 mg/kg i.v.
[13] = cited from earlier work
[14] = tested on: plasma ANF; test: Clinical pharmacology: plasma natriuretic auricular factor (ANF); type: in vivo, human; details: 30 mg oral, 1 hr after administration, vs placebo, p<0.05
Method: (§6) With healthy volunteers (9 male subjects) enkephalinase and natriuretic auricular factor (ANF) plasma levels as well as diuresis and natruresis are measured after oral administration of either a placebo, or (S) acetorphan.

[15] = tested on: plasma enkephalinase; test: Clinical pharmacology: plasma enkephalinase; type: in vivo, human; details: 30 mg oral, 1 hr after administration, vs placebo, p<0.001
Method: as §6

[16] = tested on: healthy volunteers; test: Clinical pharmacology: diuresis and natriuresis; type: in vivo, human; details: 30 mg oral, between 2 and 8 hours after administration, p<0.05
Method: as §6

[17] = mouse, mouse striatum, 30 mn after i.v. administration

ED50 [2, 17]: > 20 mg/kg
IC50 [3]: 3 nM
IC50 [4]: 2000 nM
Structure (SMILES): COC(=O)[C@H](C)NC(=O)[C@H](CSC(C)=O)Cc1ccccc1 [(5), (R) N-/2-acetylthiomethyl-1-oxo-3-phenyl propyl/-(S)-alanine methyl ester]
Enkephalinase In vivo(b) (DE50, mg/kg) [1]: 0.9 mg/kg

Structure (SMILES): O=C(O)CNC(=O)[C@@H](CS)Cc1ccccc1 [(S) isomer]
ACE's inhibiting activity ([5]; separate enantiomers of thiorphan): almost exclusively attributable to the (S) isomer

Structure (SMILES): CC(=O)SCC(Cc1ccccc1)C(=O)NCC(=O)OCc1ccccc1 (single isomer, unassigned) [Compound (1)]
stimulation of gastric acid secretion induced by Pentagastrin, 2-deoxyglucose and histamin [6]: significatively decreased
Enkephalinase In vivo(b) (DE50, mg/kg) ([1]; 30 min): 0.8 mg/kg
Inhibition of enkephalinase (%) [7]: 15 ± 6%
ACE-inhibiting effect ([2]; mouse, in vivo): lack of ACE-inhibiting effect
ED50 [2, 17]: > 20 mg/kg
IC50 [3]: 2 nM
Reaction time ([8]; 5 mg/kg i.v., 20' before test): 85 ± 5 s
Reaction time ([8]; 30 mg/kg oral, 1 h before test): 80 ± 6 s
Reaction time ([8]; 100 mg/kg oral, 1 h before test): 140 ± 10 s
Motive index, After meal (0/+2 h) ([9]; 1 mg/kg i.v.): 15.2 ± 2.4
Motive index, After meal (+2/10 h) ([9]; 1 mg/kg i.v.): 18.3 ± 3.1
Motive index, Before meal (-2/0) ([9]; 1 mg/kg i.v.): 5.9 ± 0.7
Motive index, After meal (0/+2 h) ([9]; 10 mg/kg p.o.): 17.4 ± 2.7
Motive index, After meal (+2/10 h) ([9]; 10 mg/kg p.o.): 21.5 ± 4.6
Motive index, Before meal (-2/0) ([9]; 10 mg/kg p.o.): 6.4 ± 0.8
colic motricity as an answer to the intake of food ([9]; dogs, postprandial periods): potentiates an increase in colic motricity
Increase of ANF (%) [10]: inactive
Organ weight and pathological examination [11]: no difference as opposed to control
IC50 [4]: 5000 nM
hypersecretion induced by an inflammation of the gall bladder [12]: significatively decreases hypersecretion

ED50 [2, 17]: 4 mg/kg
IC50 [3]: 1.2 nM
IC50 [4]: 12 nM
Structure (SMILES): COC(=O)[C@H](C)NC(=O)[C@@H](CSC(C)=O)Cc1ccccc1 [(6), (S) N-/2-acetylthiomethyl-1-oxo-3-phenylpropyl/-(S)-alanine methyl ester]
Enkephalinase In vivo(b) (DE50, mg/kg) [1]: 0.3 mg/kg

Structure (SMILES): O=C(O)CNC(=O)C(CS)Cc1ccccc1 (racemic) [thiorphan]
inhibition of angiotensin conversion enzyme [5]: less powerful inhibitor of angiotensin conversion enzyme
cardiovascular activity ([13]; at a higher dose): at a higher dose, a cardiovascular activity
active dose systemically, times higher than Acetorphan ([13]; systemically, relative to Acetorphan i.v. (around 1 mg/kg)): about 50 times
analgesic properties ([13]; used intraveinously or intracerebroventricularly): analgesic properties

Structure (SMILES): CC(=O)SCC(Cc1ccccc1)C(=O)NCC(=O)OCc1ccccc1 (racemic) [Acetorphan, (R,S) N-/2-acetylthiomethyl-1-oxo-3-phenyl propyl/-glycine benzyl ester]
dose active intraveinously ([13]; i.v.): around 1 mg/kg

Structure (SMILES): O=C(O)CNC(=O)[C@H](CS)Cc1ccccc1 [(R) isomer]
analgesic activity ([13]; intracerebral, separate enantiomers of thiorphan): principally to the (R) isomer

Structure (SMILES): CC(=O)SCC(Cc1ccccc1)C(=O)NCC(=O)OCc1ccccc1 (single isomer, unassigned) [Compound (2)]
stimulation of gastric acid secretion induced by Pentagastrin, 2-deoxyglucose and histamin [6]: significatively decreased
increase of plasma ANF [14]: 50%
Enkephalinase In vivo(b) (DE50, mg/kg) ([1]; 30 min): 0.4 mg/kg
Inhibition of enkephalinase (%) [7]: 54 ± 6%
ACE In vivo(d) (DE50, mg/kg) ([2]; mouse striatum, 30 mn after i.v. administration, 30 min): 10 mg/kg
IC50 [3]: 3 nM
Reaction time ([8]; 30 mg/kg oral, 1 h before test): 75 ± 5 s
Motive index, After meal (0/+2 h) ([9]; 5 mg/kg p.o.): 16.3 ± 2.5
Motive index, After meal (+2/10 h) ([9]; 5 mg/kg p.o.): 20.1 ± 3.7
Motive index, Before meal (-2/0) ([9]; 5 mg/kg p.o.): 6.2 ± 0.9
inhibition of plasma enkephalinase [15]: 62%
increase of renal 125I ANF ([10]; 0.3 mg/kg p.o., after 30 min): 75±7%
Increase of ANF (%) [10]: 33 ± 3%
IC50 [4]: 100 nM
increase of diuresis [16]: 42%
increase of natriuresis [16]: 46%
